In patent US10988459B2 (priority 2015, dated 2021) one finds Ki data, which are given here for 28 compounds.

Where two headings read alike, the source gives them in different places.

The target in this experiment is human RIP1 kinase domain (2-375) (Homo sapiens (Human), UniProt Q13546). As to the kind of experiment: biochemical. In kind it is biochemical. An outline of the steps: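 50 nM purified kinase domain from baculovirus-infected insect cells, incubated 2 h with compound in 50 mM Hepes pH 7.5, 30 mM MgCl2, 1 mM DTT, 50 uM ATP, 0.002% Brij-35, 0.5% DMSO. ADP formation read by Transcreener FP at 633 nm excitation. Ki^app fitted with the Morrison tight-binding equation.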

The mark [1] stands for this setting: Table 1, apparent Ki (Morrison tight-binding fit), 50 nM RIP1 kinase domain, 50 uM ATP, 2 hours incubation, read-out: RIP1 Ki.
Setting [2] is: human RIP1 kinase domain (2-375), 50 uM ATP, 2 hours incubation, Transcreener ADP assay, read-out: RIP1 Ki.
Setting [3] is: tight-binding apparent inhibition constant, human RIP1 kinase domain (2-375) 50 nM, 50 uM ATP, 2 hours, read-out: Ki.
The mark [4] stands for this setting: Table 5, apparent Ki (Morrison tight-binding fit), 50 nM RIP1 kinase domain, 50 uM ATP, 2 hours incubation, read-out: Ki.

human RIP1 kinase domain (2-375), sequence (Q13546 2-375): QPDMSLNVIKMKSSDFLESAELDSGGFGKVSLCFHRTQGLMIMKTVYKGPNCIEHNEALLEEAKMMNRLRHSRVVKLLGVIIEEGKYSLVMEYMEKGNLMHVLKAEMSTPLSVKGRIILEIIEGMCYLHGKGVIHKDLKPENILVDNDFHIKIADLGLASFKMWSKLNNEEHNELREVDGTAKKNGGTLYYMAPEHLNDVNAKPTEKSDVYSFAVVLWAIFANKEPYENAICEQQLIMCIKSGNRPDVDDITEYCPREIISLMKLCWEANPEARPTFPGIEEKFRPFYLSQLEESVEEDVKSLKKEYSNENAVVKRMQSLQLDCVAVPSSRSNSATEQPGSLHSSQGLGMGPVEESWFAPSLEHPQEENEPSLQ

Turning to `Cc1cc2n(n1)CC[C@H](NC(=O)c1nnc(Cc3ccccc3)[nH]1)C(=O)N2C` [Example 77, (S)-5-benzyl-N-(2,4-dimethyl-5-oxo-5,6,7,8-tetrahydro-4H-pyrazolo[1,5-a][1,3]diazepin-6-yl)-4H-1,2,4-triazole-3-carboxamide], the Ki under setting [1] was 58 nM. In the case of `O=C(NC1CCn2ncc3c2N(CCO3)C1=O)c1ncn(Cc2ccccc2)n1` (stereo not shown) [Example 198, 1-benzyl-N-(6-oxo-4,5,6,7,8,9-hexahydro-3-oxa-1,5a,9a-triazabenzo[cd]azulen-7-yl)-1H-1,2,4-triazole-3-carboxamide], the Ki under setting [2] was 232 nM. `CN1C(=O)[C@@H](NC(=O)c2nnc(Cc3ccccc3)[nH]2)CCn2nc3c(c21)CS(=O)(=O)C3` [Example 453, (S)-5-Benzyl-N-(1-methyl-9,9-dioxido-2-oxo-1,2,3,4,5,10-hexahydro-8H-thieno[3′,4′:3,4]pyrazolo[1,5-a][1,3]diazepin-3-yl)-4H-1,2,4-triazole-3-carboxamide]: the Ki under setting [3] came out at 301 nM. The same measure, in the same setting: the result for `Cc1cc2n(n1)CC[C@H](NC(=O)c1ncn(CC3CCCOC3)n1)C(=O)N2C` (stereo partly drawn) [Example 475, N-(6S)-2,4-dimethyl-5-oxo-7,8-dihydro-6H-pyrazolo[1,5-a][1,3]diazepin-6-yl-1-(tetrahydropyran-3-ylmethyl)-1,2,4-triazole-3-carboxamide] reads 360 nM. Take `CN1C(=O)[C@@H](NC(=O)c2ncn(Cc3ccccc3)n2)CCn2ccnc21` [Example 151, (S)-1-benzyl-N-(9-methyl-8-oxo-6,7,8,9-tetrahydro-5H-imidazo[1,2-a][1,3]diazepin-7-yl)-1H-1,2,4-triazole-3-carboxamide]: the Ki under setting [2] came to 26.6 nM. As to `COc1ccccc1Cn1cnc(C(=O)N[C@H]2CCn3nc(C4CC4)cc3N(C)C2=O)n1` [Example 592], under setting [3], the Ki was determined as 48 nM.

In the case of `CC(C)(C)C1CCc2onc(C(=O)N[C@H]3COc4ccccc4NC3=O)c2C1` (stereo partly drawn) [Example 65, 5-(tert-butyl)-N-((S)-4-oxo-2,3,4,5-tetrahydrobenzo[b][1,4]oxazepin-3-yl)-4,5,6,7-tetrahydrobenzo[d]isoxazole-3-carboxamide], the Ki under setting [1] turned out to be 404 nM. As to `Cc1ccccc1Cn1cnc(C(=O)N[C@H]2CCn3nccc3N(C)C2=O)n1` [Example 588, 1-(o-tolylmethyl)-N-(6S)-4-methyl-5-oxo-7,8-dihydro-6H-pyrazolo[1,5-a][1,3]diazepin-6-yl-1,2,4-triazole-3-carboxamide], the Ki under setting [3] came to 13 nM. Take `CC1CCc2n[nH]c(C(=O)N[C@H]3COc4ccccc4N(C)C3=O)c2C1` (stereo partly drawn) [Example 45, 5-methyl-N-((S)-5-methyl-4-oxo-2,3,4,5-tetrahydrobenzo[b][1,4]oxazepin-3-yl)-4,5,6,7-tetrahydro-2H-indazole-3-carboxamide]: where the note is “read-out: RIP1 Ki”, the Ki turned out to be 62.6 nM. Turning to `CN1C(=O)[C@H](NC(=O)c2nnc(Cc3ccccc3)[nH]2)CCn2nc([C@H]3CC3(F)F)cc21` (racemic) [Example 673, 5-benzyl-N-[rac-(6R)-4-methyl-5-oxo-2-[rac-(1R)-2,2-difluorocyclopropyl]-7,8-dihydro-6H-pyrazolo[1,5-a] [1,3]diazepin-6-yl]-4H-1,2,4-triazole-3-carboxamide], the Ki under setting [3] was determined as 41.2 nM.

As for `CCC[C@@]1(C)OCc2cnc(C(=O)N[C@H]3COc4ccccc4N(C)C3=O)nc21` (racemic) [Example 684, rac-(7R)-7-methyl-7-propyl-N-[rao-(3S)-5-methyl-4-oxo-2,3-dihydro-1,5-benzoxazepin-3-yl]-5H-furo[3,4-d]pyrimidine-2-carboxamide], under setting [3], the Ki was 163 nM. Still for that read-out and setting: for `Cc1cc(F)c2c(c1)OC[C@H](NC(=O)c1nc3n(n1)CCO[C@@H]3c1ccccc1)C(=O)N2` [Example 643, (8R)-8-phenyl-N-[(3S)-6-fluoro-8-methyl-4-oxo-3,5-dihydro-2H-1,5-benzoxazepin-3-yl]-6,8-dihydro-5H-[1,2,4]triazolo[5,1-c][1,4]oxazine-2-carboxamide] the value was 360 nM. Consider `O=C(N[C@H]1COc2[nH]ncc2NC1=O)c1cn(Cc2ccc(F)c(F)c2)cn1` [Example 17, 1-[(3,4-difluorophenyl)methyl]-N-[(6S)-5-oxo-1,4,6,7-tetrahydropyrazolo[3,4-b][1,4]oxazepin-6-yl]imidazole-4-carboxamide], for which, under setting [1], the Ki is over 10000 nM. Take `CN1C(=O)[C@@H](NC(=O)c2nnc3n2CC(C(F)(F)C(F)(F)F)CC3)COc2ccccc21` (stereo partly drawn) [Example 116, N—((S)-5-methyl-4-oxo-2,3,4,5-tetrahydrobenzo[b][1,4]oxazepin-3-yl)-6-(perfluoroethyl)-5,6,7,8-tetrahydro-[1,2,4]triazolo[4,3-a]pyridine-3-carboxamide]: the Ki under setting [2] was found to be 371 nM. `COCCNCc1cc2n(n1)CCC(NC(=O)c1ncn(Cc3ccccc3)n1)C(=O)N2C` (single isomer, unassigned) [Example 724, 1-benzyl-N-[2-[(2-methoxyethylamino)methyl]-4-methyl-5-oxo-7,8-dihydro-6H-pyrazolo[1,5-a][1,3]diazepin-6-yl]-1,2,4-triazole-3-carboxamide]: the Ki under setting [4] is 598 nM. Regarding `C[C@@H]1CCc2[nH]nc(C(=O)N[C@H]3COc4ccccc4N(C)C3=O)c2C1` [Example 60, (R)-5-methyl-N-((S)-5-methyl-4-oxo-2,3,4,5-tetrahydrobenzo[b][1,4]oxazepin-3-yl)-4,5,6,7-tetrahydro-1H-indazole-3-carboxamide], the Ki (read-out: RIP1 Ki) stood at 15.6 nM. Turning to `CN1C(=O)C(NC(=O)c2nnc(Cc3ccccc3)[nH]2)CCn2c1nc1ccccc12` (stereo not shown) [Example 109, 5-benzyl-N-(1-methyl-2-oxo-2,3,4,5-tetrahydro-1H-benzo[4,5]imidazo[1,2-a][1,3]diazepin-3-yl)-4H-1,2,4-triazole-3-carboxamide], under setting [2], the Ki amounted to 124 nM. As to `CN1C(=O)[C@@H](NC(=O)c2ncn(Cc3cccc(F)c3F)n2)CCn2nccc21` (racemic) [Example 342, 1-[(2,3-difluorophenyl)methyl]-N-[rac-(6S)-4-methyl-5-oxo-7,8-dihydro-6H-pyrazolo[1,5-a][1,3]diazepin-6-yl]-1,2,4-triazole-3-carboxamide], the Ki under setting [3] was found to be 10.9 nM. Same read-out and setting: for `CN1C(=O)[C@H](NC(=O)c2ncn(Cc3ccc(F)cc3)n2)CCn2nc(C3CC3)cc21` (stereo in doubt) [Example 680, 1-[(4-fluorophenyl)methyl]-N-[rac-(6R)-2-cyclopropyl-4-methyl-5-oxo-7,8-dihydro-6H-pyrazolo[1,5-a][1,3]diazepin-6-yl]-1,2,4-triazole-3-carboxamide] the value was 9200 nM; for `Cc1cc(F)c2c(c1)OC[C@H](NC(=O)c1nc3n(n1)[C@@H](C(C)C)CCC3)C(=O)N2` (single isomer, unassigned) [Example 438], 150 nM. With `Cc1cc2n(n1)CC[C@@H](NC(=O)c1nnc(Cc3ccc(F)cc3)[nH]1)C(=O)N2C` [Example 329, (R)—N-(2,4-dimethyl-5-oxo-5,6,7,8-tetrahydro-4H-pyrazolo[1,5-a][1,3]diazepin-6-yl)-5-(4-fluorobenzyl)-4H-1,2,4-triazole-3-carboxamide], the Ki (human RIP1 kinase domain (2-375), Transcreener ADP assay, 50 uM ATP, 2 hours incubation, read-out: RIP1 Ki) was found to be 3810 nM.

With `CN1C(=O)[C@@H](NC(=O)c2ncn(C[C@H]3C[C@@H](C)C3)n2)CCn2nccc21` [Example 496, N—((S)-4-methyl-5-oxo-5,6,7,8-tetrahydro-4H-pyrazolo[1,5-a][1,3]diazepin-6-yl)-1-(((1S,3R)-3-methylcyclobutyl)methyl)-1H-1,2,4-triazole-3-carboxamide], the Ki under setting [3] was determined as 52 nM. In the case of `Cc1cc2n(n1)CC[C@H](NC(=O)c1cc3c(-c4ccccc4)cccc3cn1)C(=O)N2C` (racemic) [Example 702, 5-phenyl-N-[rac-(6S)-2,4-dimethyl-5-oxo-7,8-dihydro-6H-pyrazolo[1,5-a][1,3]diazepin-6-yl]isoquinoline-3-carboxamide], under setting [4], the Ki turned out to be 33 nM. Still for that read-out and setting: for `Cc1cc2n(n1)CC[C@H](NC(=O)c1ccn(Cc3ccccc3)n1)C(=O)N2C` [Example 741, 1-benzyl-N-[(6S)-2,4-dimethyl-5-oxo-7,8-dihydro-6H-pyrazolo[1,5-a][1,3]diazepin-6-yl]pyrazole-3-carboxamide] the value was 140 nM.

Turning to `CN1C(=O)[C@@H](NC(=O)c2nc3n(n2)[C@H](C(F)(F)F)CCC3)COc2ccccc21` (racemic) [Example 426, (S)—N—((S)-5-methyl-4-oxo-2,3,4,5-tetrahydrobenzo[b][1,4]oxazepin-3-yl)-5-(trifluoromethyl)-5,6,7,8-tetrahydro-[1,2,4]triazolo[1,5-a]pyridine-2-carboxamide], the Ki under setting [3] amounted to 13.7 nM. Same read-out and setting: the result for `Cc1ncc2n1CC[C@@H](NC(=O)c1ncn(Cc3cc(F)ccc3F)n1)C(=O)N2C` [Example 577, 1-[(2,5-difluorophenyl)methyl]-N-(3R)-1,7-dimethyl-2-oxo-4,5-dihydro-3H-imidazo[1,5-a][1,3]diazepin-3-yl-1,2,4-triazole-3-carboxamide] reads 80 nM; that for `CN1C(=O)[C@H](NC(=O)c2ncn(Cc3ccccc3F)n2)CCn2ccnc21` [Example 601, 1-[(2-fluorophenyl)methyl]-N-(7R)-9-methyl-8-oxo-6,7-dihydro-5H-imidazo[1,2-a][1,3]diazepin-7-yl-1,2,4-triazole-3-carboxamide], 43 nM; that for `CN1C(=O)[C@@H](NC(=O)c2ncc3cnn(C4CCCOC4)c3n2)COc2ccccc21` (stereo partly drawn) [Example 563, N-[(3S)-5-methyl-4-oxo-2,3-dihydro-1,5-benzoxazepin-3-yl]-1-tetrahydropyran-3-yl-pyrazolo[3,4-d]pyrimidine-6-carboxamide], 54 nM.
